Test results taken from patent US10913727B2, “Modulators of the integrated stress pathway” (Calico Life Sciences LLC, priority 2016, dated 2021).

Tested on: HEK293T cells carrying the ATF4 luciferase reporter
Assay: ATF4-Luc assay, in vitro model of Vanishing Cell White Matter Disease (VWMD)
Type: cell-based
Conditions: Homo sapiens, HEK-293T, 1 μg/mL tunicamycin, 7 hours, One Glo luminescence
Procedure, shortened: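 Reporter cells were stably generated by retroviral transduction and puromycin selection, then seeded at 30,000 cells/well. Next day, cells received 1 μg/mL tunicamycin with 200 nM test compound for 7 h, and luciferase luminescence was read with a one-step reagent. Values reported as EC50.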

With `O=C(COc1ccc(Cl)c(F)c1)NC12CCC(NC(=O)c3ccc(C(F)F)cn3)(CC1)C[C@@H]2O` [Compound 752, N-{(3S)-4-[2-(4-chloro-3-fluorophenoxy)acetamido]-3-hydroxybicyclo[2.2.2]octan-1-yl}-5-(difluoromethyl)pyridine-2-carboxamide] the EC50 was < 50 nM.
Work on `O=C(COc1ccc(Cl)c(F)c1)NC12CC(NC(=O)c3ncc(C(F)F)s3)(C1)C2` [Compound 425, N-{3-[2-(4-chloro-3-fluorophenoxy)acetamido]bicyclo[1.1.1]pentan-1-yl}-5-(difluoromethyl)-1,3-thiazole-2-carboxamide] yielded an EC50 of 250 to 1000 nM.
`O=C(COc1ccc(Cl)c(F)c1)NC12CCC(NC(=O)c3cccc(F)c3)(CC1)[C@@H](O)C2` [Compound 488, N-{(2S)-4-[2-(4-chloro-3-fluorophenoxy)acetamido]-2-hydroxybicyclo[2.2.2]octan-1-yl}-3-fluorobenzamide] gave an EC50 of 50 to 250 nM.
In the case of `O=C(COc1ccc(Cl)c(F)c1)NC12CC(NC(=O)c3ccc(C4CC4)cn3)(C1)C2` [Compound 143, N-{3-[2-(4-chloro-3-fluorophenoxy)acetamido]bicyclo[1.1.1]pentan-1-yl}-5-cyclopropylpyridine-2-carboxamide], the EC50 is reported as 50 to 250 nM.
In the case of `COc1cc(C(=O)NC23CC(NC(=O)COc4ccc(Cl)c(F)c4)(C2)C3)on1` [Compound 253, N-{3-[2-(4-chloro-3-fluorophenoxy)acetamido]bicyclo[1.1.1]pentan-1-yl}-3-methoxy-1,2-oxazole-5-carboxamide], the EC50 is reported as 50 to 250 nM.
With `COc1cncc(C(=O)NC23CC(NC(=O)COc4ccc(Cl)c(F)c4)(C2)C3)c1` [Compound 790, N-{3-[2-(4-chloro-3-fluorophenoxy)acetamido]bicyclo[1.1.1]pentan-1-yl}-5-methoxypyridine-3-carboxamide] the EC50 was 50 to 250 nM.
`CCCn1ccc(C(=O)NC23CC(NC(=O)COc4ccc(Cl)c(F)c4)(C2)C3)n1` [Compound 343, N-{3-[2-(4-chloro-3-fluorophenoxy)acetamido]bicyclo[1.1.1]pentan-1-yl}-1-propyl-1H-pyrazole-3-carboxamide] gave an EC50 of 50 to 250 nM.
For `O=C(COc1ccc(Cl)c(F)c1)NC12CCC(NC(=O)c3cnon3)(CC1)CC2O` (stereo not shown) [Compound 634, N-{4-[2-(4-chloro-3-fluorophenoxy)acetamido]-3-hydroxybicyclo[2.2.2]octan-1-yl}-1,2,5-oxadiazole-3-carboxamide], the EC50 was > 2000 nM.
In the case of `O=C(COc1ccc(Cl)c(F)c1)NC12CCC(NC(=O)c3cnccn3)(CC1)C[C@@H]2O` [Compound 670, N-{(3S)-4-[2-(4-chloro-3-fluorophenoxy)acetamido]-3-hydroxybicyclo[2.2.2]octan-1-yl}pyrazine-2-carboxamide], the EC50 is reported as < 50 nM.
With `O=C(COCc1cccc(Cl)c1)NC12CC(NC(=O)c3cnc(C(F)F)cn3)(C1)C2` [Compound 947, N-(3-{2-[(3-chlorophenyl)methoxy]acetamido}bicyclo[1.1.1]pentan-1-yl)-5-(difluoromethyl)pyrazine-2-carboxamide] the EC50 was > 2000 nM.
Compound `Cc1cnc(C(=O)NC23CCC(NC(=O)COc4ccc(Cl)c(F)c4)(CC2)C(O)C3)c(C)n1` (stereo not shown) [Compound 286, N-{4-[2-(4-chloro-3-fluorophenoxy)acetamido]-3-hydroxybicyclo[2.2.2]octan-1-yl}-3,5-dimethylpyrazine-2-carboxamide] has an EC50 of 250 to 1000 nM.
In the case of `O=C(COc1ccc(Cl)c(F)c1)NC12CC(NC(=O)c3cc(N4CC(O)C4)ccn3)(C1)C2` [Compound 179, N-{3-[2-(4-chloro-3-fluorophenoxy)acetamido]bicyclo[1.1.1]pentan-1-yl}-4-(3-hydroxyazetidin-1-yl)pyridine-2-carboxamide], the EC50 is reported as 250 to 1000 nM.
For `O=C(COc1ccc(Cl)c(F)c1)NC12CC(NC(=O)c3cnc4ncccc4n3)(C1)C2` [Compound 864, N-{3-[2-(4-chloro-3-fluorophenoxy)acetamido]bicyclo[1.1.1]pentan-1-yl}pyrido[2,3-b]pyrazine-2-carboxamide], the EC50 was > 2000 nM.
With `O=C(COc1ccc(Cl)c(F)c1)NC12CCC(NC(=O)c3cc(Cc4ccc(Cl)cc4)no3)(CC1)CC2O` (stereo not shown) [Compound 410, N-{4-[2-(4-chloro-3-fluorophenoxy)acetamido]-3-hydroxybicyclo[2.2.2]octan-1-yl}-3-[(4-chlorophenyl)methyl]-1,2-oxazole-5-carboxamide] the EC50 was 50 to 250 nM.
In the case of `Cc1cc(C(=O)NC23CCC(NC(=O)COc4ccc(Cl)c(F)c4)(CC2)C(O)C3)oc1C` (stereo not shown) [Compound 474, N-{4-[2-(4-chloro-3-fluorophenoxy)acetamido]-3-hydroxybicyclo[2.2.2]octan-1-yl}-4,5-dimethylfuran-2-carboxamide], the EC50 is reported as 50 to 250 nM.
`O=C(COc1ccc(Cl)c(F)c1)NC12CC(NC(=O)c3cc(CCO)ccn3)(C1)C2` [Compound 282, N-{3-[2-(4-chloro-3-fluorophenoxy)acetamido]bicyclo[1.1.1]pentan-1-yl}-4-(2-hydroxyethyl)pyridine-2-carboxamide] showed an EC50 of 250 to 1000 nM.
For `COc1ccccc1C(=O)NC12CC(NC(=O)COc3ccc(Cl)c(F)c3)(C1)C2` [Compound 529, N-{3-[2-(4-chloro-3-fluorophenoxy)acetamido]bicyclo[1.1.1]pentan-1-yl}-2-methoxybenzamide], the EC50 was > 2000 nM.
For `O=C(COc1ccc(Cl)c(F)c1)NC12CCC(NC(=O)c3cc(C(F)(F)F)ccn3)(CC1)CC2O` (stereo not shown) [Compound 933, N-{4-[2-(4-chloro-3-fluorophenoxy)acetamido]-3-hydroxybicyclo[2.2.2]octan-1-yl}-4-(trifluoromethyl)pyridine-2-carboxamide], the EC50 was 50 to 250 nM.
Work on `O=C(COc1ccc(Cl)c(F)c1)NC12CC(Nc3ccn4nccc4n3)(C1)C2` [Compound 609, 2-(4-chloro-3-fluorophenoxy)-N-{3-[(pyrazolo[1,5-a]pyrimidin-5-yl)amino]bicyclo[1.1.1]pentan-1-yl}acetamide] yielded an EC50 of 1000 to 2000 nM.
Compound `Cc1cc2c(NC34CC(NC(=O)COc5ccc(F)c(F)c5)(C3)C4)nccn2n1` [Compound 436, 2-(3,4-difluorophenoxy)-N-{3-[(2-methylpyrazolo[1,5-a]pyrazin-4-yl)amino]bicyclo[1.1.1]pentan-1-yl}acetamide] has an EC50 of 50 to 250 nM.
`O=C(COc1ccc(Cl)cc1)NC12CC(Nc3nnc(-c4ccc(Cl)cc4)s3)(C1)C2` [Compound 271, 2-(4-chlorophenoxy)-N-(3-{[5-(4-chlorophenyl)-1,3,4-thiadiazol-2-yl]amino}bicyclo[1.1.1]pentan-1-yl)acetamide] gave an EC50 of 250 to 1000 nM.
In the case of `CCc1nc(C(=O)NC23CC(NC(=O)COc4ccc(Cl)c(F)c4)(C2)C3)cs1` [Compound 554, N-{3-[2-(4-chloro-3-fluorophenoxy)acetamido]bicyclo[1.1.1]pentan-1-yl}-2-ethyl-1,3-thiazole-4-carboxamide], the EC50 is reported as < 50 nM.
`O=C(COc1ccc(Cl)c(Cl)c1)NC12CC(NC(=O)c3ccc(OC(F)(F)F)nc3)(C1)C2` [Compound 147, N-{3-[2-(3,4-dichlorophenoxy)acetamido]bicyclo[1.1.1]pentan-1-yl}-6-(trifluoromethoxy)pyridine-3-carboxamide] showed an EC50 of 50 to 250 nM.
In the case of `CS(=O)(=O)c1ccccc1C(=O)NC12CC(NC(=O)COc3ccc(Cl)c(F)c3)(C1)C2` [Compound 827, N-{3-[2-(4-chloro-3-fluorophenoxy)acetamido]bicyclo[1.1.1]pentan-1-yl}-2-(methanesulfonyl)benzamide], the EC50 is reported as > 2000 nM.
In the case of `O=C(COc1ccc(Cl)c(F)c1)NC12CC(NC(=O)c3ccc4ncsc4c3)(C1)C2` [Compound 773, N-{3-[2-(4-chloro-3-fluorophenoxy)acetamido]bicyclo[1.1.1]pentan-1-yl}-1,3-benzothiazole-6-carboxamide], the EC50 is reported as > 2000 nM.
With `O=C(COc1ccc(Cl)c(Cl)c1)NC12CC(NC(=O)c3ccc(OC(F)F)cn3)(C1)C2` [Compound 153, N-{3-[2-(3,4-dichlorophenoxy)acetamido]bicyclo[1.1.1]pentan-1-yl}-5-(difluoromethoxy)pyridine-2-carboxamide] the EC50 was 50 to 250 nM.
With `O=C(COc1ccc(Cl)c(F)c1)NC12CC(Nc3nc4ccccc4o3)(C1)C2` [Compound 360, N-{3-[(1,3-benzoxazol-2-yl)amino]bicyclo[1.1.1]pentan-1-yl}-2-(4-chloro-3-fluorophenoxy)acetamide] the EC50 was > 2000 nM.
For `O=C(COc1ccc(Cl)c(F)c1)NC12CC(Nc3cc(C(F)(F)F)ccn3)(C1)C2` [Compound 757, 2-(4-chloro-3-fluorophenoxy)-N-(3-{[4-(trifluoromethyl)pyridin-2-yl]amino}bicyclo[1.1.1]pentan-1-yl)acetamide], the EC50 was > 2000 nM.
In the case of `NCc1ccnc(C(=O)NC23CC(NC(=O)COc4ccc(Cl)c(Cl)c4)(C2)C3)c1` [Compound 615, 4-(aminomethyl)-N-{3-[2-(3,4-dichlorophenoxy)acetamido]bicyclo[1.1.1]pentan-1-yl}pyridine-2-carboxamide], the EC50 is reported as 50 to 250 nM.
In the case of `Cc1cc(Cl)cnc1C(=O)NC12CC(NC(=O)COc3ccc(Cl)c(F)c3)(C1)C2` [Compound 777, 5-chloro-N-{3-[2-(4-chloro-3-fluorophenoxy)acetamido]bicyclo[1.1.1]pentan-1-yl}-3-methylpyridine-2-carboxamide], the EC50 is reported as > 2000 nM.
`Cc1cc(C(=O)NC23CC(NC(=O)COc4ccc(Cl)c(F)c4)(C2)C3)nn1C` [Compound 848, N-{3-[2-(4-chloro-3-fluorophenoxy)acetamido]bicyclo[1.1.1]pentan-1-yl}-1,5-dimethyl-1H-pyrazole-3-carboxamide] was tested, and the EC50 was < 50 nM.
Work on `O=C(COc1ccc(Cl)c(F)c1)NC12CC(Nc3cnccn3)(C1)C2` [Compound 725, 2-(4-chloro-3-fluorophenoxy)-N-{3-[(pyrazin-2-yl)amino]bicyclo[1.1.1]pentan-1-yl}acetamide] yielded an EC50 of 1000 to 2000 nM.
`O=C(COc1ccc(Cl)c(F)c1)NC12CCC(NC(=O)c3ccc(F)cn3)(CC1)C(O)C2` (stereo not shown) [Compound 168, N-{4-[2-(4-chloro-3-fluorophenoxy)acetamido]-2-hydroxybicyclo[2.2.2]octan-1-yl}-5-fluoropyridine-2-carboxamide] was tested, and the EC50 was 50 to 250 nM.
With `O=C(COc1ccc2c(c1)OC(F)(F)O2)NC12CC(NC(=O)c3ccc(C(=O)O)cc3)(C1)C2` [Compound 128, 4-[(3-{2-[(2,2-difluoro-2H-1,3-benzodioxol-5-yl)oxy]acetamido}bicyclo[1.1.1]-pentan-1-yl)carbamoyl]benzoic acid] the EC50 was > 2000 nM.
